Experiment: mn = molality of the nth substance listed, in mol/kg
Settings: 101.3 kPa, Liquid

[Cl-].[Cl-].[Zn+2] [zinc chloride] + CC#N
mass density [kg/m3]
Settings | m1 = 0.05257 | m1 = 0.06571 | m1 = 0.07576 | m1 = 0.08438 | m1 = 0.1077 | m1 = 0.128 | m1 = 0.1487 | m1 = 0.1684 | m1 = 0.1902 | m1 = 0.2114
288.15 K | 791.935 | 793.095 | 794 | 794.764 | 796.85 | 798.676 | 800.536 | 802.335 | 804.302 | 806.244
293.15 K | 786.551 | 787.712 | 788.618 | 789.38 | 791.469 | 793.289 | 795.155 | 796.955 | 798.922 | 800.862
298.15 K | 781.15 | 782.313 | 783.217 | 783.985 | 786.068 | 787.887 | 789.746 | 791.541 | 793.519 | 795.456
303.15 K | 775.724 | 776.886 | 777.79 | 778.553 | 780.64 | 782.455 | 784.317 | 786.115 | 788.091 | 790.032
308.15 K | 770.266 | 771.431 | 772.33 | 773.096 | 775.184 | 777.003 | 778.858 | 780.661 | 782.635 | 784.575
313.15 K | 764.781 | 765.94 | 766.841 | 767.607 | 769.697 | 771.516 | 773.372 | 775.165 | 777.148 | 779.089
323.15 K | 753.694 | 754.859 | 755.76 | 756.526 | 758.618 | 760.435 | 762.295 | 764.103 | 766.072 | 768.014

CC#N [acetonitrile] + [Cl][Co][Cl]
m2 = 0
Settings | mass density [kg/m3]
288.15 K | 787.297
293.15 K | 781.919
298.15 K | 776.518
303.15 K | 771.09
308.15 K | 765.631
313.15 K | 760.142
323.15 K | 749.056

CC#N [acetonitrile] + [Br-].[Br-].[Zn+2]
m2 = 0
Settings | mass density [kg/m3]
288.15 K | 787.313
293.15 K | 781.935
298.15 K | 776.535
303.15 K | 771.106
308.15 K | 765.65
313.15 K | 760.159
323.15 K | 749.07

CC#N [acetonitrile] + [Cl-].[Cl-].[Zn+2]
m2 = 0
Settings | mass density [kg/m3]
288.15 K | 787.303
293.15 K | 781.922
298.15 K | 776.522
303.15 K | 771.095
308.15 K | 765.637
313.15 K | 760.151
323.15 K | 749.071

Reference: the NIST ThermoML archive (doi:10.1021/je7001946)
